Reference: patent US6737383B1, “Herbicidal oxadiazolidines” (priority 1999, dated 2004)

Experiments:
bamyardgrass = test: Test B flood test barnyardgrass; type: in vivo, Echinochloa crus-galli
Method in brief: (§1)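 Each value is a visual injury score relative to controls, with 10 meaning complete control and 0 no effect. Evaluation took place twelve to sixteen days after the 2-leaf-stage plants were treated and kept in the greenhouse.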

cocklebur = test: Test B pre/postemergence cocklebur; type: in vivo, Xanthium strumarium
Method in brief: (§2)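 Response is a visual 0-to-10 score relative to untreated plants, where 0 means no effect and 10 means complete control, taken twelve to sixteen days after application. Treatments went onto soil at planting and onto foliage of 1- to 4-leaf plants, using a surfactant-containing non-phytotoxic solvent.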

rape = test: Test B pre/postemergence rape; type: in vivo, Brassica napus
Method in brief: as §2

sugar beet = test: Test B pre/postemergence sugar beet; type: in vivo, Beta vulgaris
Method in brief: as §2

soybean = test: Test B pre/postemergence soybean; type: in vivo, Glycine max
Method in brief: as §2

crabgrass = test: Test B pre/postemergence crabgrass; type: in vivo, Digitaria sanguinalis
Method in brief: as §2

purple nutsedge = test: Test B pre/postemergence purple nutsedge; type: in vivo, Cyperus rotundus
Method in brief: as §2

wild oat = test: Test B pre/postemergence wild oat; type: in vivo, Avena fatua
Method in brief: as §2

rice = test: Test B flood test rice; type: in vivo, Oryza sativa
Method in brief: as §1

wheat = test: Test B pre/postemergence wheat; type: in vivo, Triticum aestivum
Method in brief: as §2

duck salad = test: Test B flood test duck salad; type: in vivo, Heteranthera limosa
Method in brief: as §1

morningglory = test: Test B pre/postemergence morningglory; type: in vivo, Ipomoea hederacea
Method in brief: as §2

velvetleaf = test: Test B pre/postemergence velvetleaf; type: in vivo, Abutilon theophrasti
Method in brief: as §2

pigweed = test: Test B pre/postemergence pigweed; type: in vivo, Amaranthus retroflexus
Method in brief: as §2

corn = test: Test B pre/postemergence corn; type: in vivo, Zea mays
Method in brief: as §2

giant foxtail = test: Test B pre/postemergence giant foxtail; type: in vivo, Setaria faberii
Method in brief: as §2

[1] = Postemergence, Rate 62 g/ha, scale 0 to 10, 0 is no effect, 10 is complete control
[2] = Rate 125 g/ha, Postemergence section (flood test species), scale 0 to 10, 0 no effect, 10 complete control
[3] = Rate 500 g/ha, Postemergence section of Table B, 0 to 10 scale (0 no effect, 10 complete control)
[4] = flood test, listed under Postemergence, Rate 250 g/ha, scale 0 to 10, 0 no effect, 10 complete control
[5] = Postemergence, Rate 250 g/ha, scale 0 to 10, 0 no effect, 10 complete control
[6] = Preemergence, Rate 31 g/ha, visual rating, scale 0 to 10 (0 no effect, 10 complete control)
[7] = Preemergence, Rate 62 g/ha, scale 0 to 10, 0 is no effect, 10 is complete control
[8] = Preemergence, Rate 125 g/ha, scale 0 to 10 (0 no effect, 10 complete control)
[9] = Preemergence, Rate 250 g/ha, scale of 0 to 10 where 0 is no effect and 10 is complete control
[10] = Rate 31 g/ha, Postemergence, scale 0 to 10
[11] = Rate 125 g/ha, Postemergence, scale 0 to 10, 0 no effect, 10 complete control

CCN(C(=O)n1oc(=O)n(-c2ccc(C)cc2C)c1=O)C1CCCCC1 [Compound 26]
0: Barnyardgrass plant response rating (bamyardgrass; [1]) | Barnyardgrass plant response rating (bamyardgrass; [2]) | Barnyardgrass plant response rating (bamyardgrass; [3]) | Barnyardgrass plant response rating (bamyardgrass; [4]) | Cocklebur plant response rating (cocklebur; [1]) | Cocklebur plant response rating (cocklebur; [5]) | Cocklebur plant response rating (cocklebur; [6]) | Plant response rating, Cocklebur (cocklebur; [7]) | Plant response rating, Cocklebur (cocklebur; [8]) | Plant response rating, Cocklebur (cocklebur; [9]) | Cocklebur plant response rating (cocklebur; [10]) | Cocklebur plant response rating (cocklebur; [11]) | Rape plant response rating (rape; [1]) | Rape plant response rating (rape; [5]) | Rape plant response rating (rape; [6]) | Plant response rating, Rape (rape; [7]) | Plant response rating, Rape (rape; [8]) | Plant response rating, Rape (rape; [9]) | Rape plant response rating (rape; [10]) | Rape plant response rating (rape; [11]) | Sugarbeets plant response rating (sugar beet; [1]) | Sugarbeets plant response rating (sugar beet; [5]) | Sugarbeets plant response rating (sugar beet; [6]) | Plant response rating, Sugarbeets (sugar beet; [7]) | Plant response rating, Sugarbeets (sugar beet; [8]) | Plant response rating, Sugarbeets (sugar beet; [9]) | Sugarbeets plant response rating (sugar beet; [11]) | Soybean plant response rating (soybean; [6]) | Plant response rating, Soybean (soybean; [7]) | Plant response rating, Soybean (soybean; [8]) | Plant response rating, Soybean (soybean; [9]) | Crabgrass plant response rating (crabgrass; [1]) | Crabgrass plant response rating (crabgrass; [6]) | Plant response rating, Crabgrass (crabgrass; [7]) | Plant response rating, Crabgrass (crabgrass; [8]) | Crabgrass plant response rating (crabgrass; [10]) | Crabgrass plant response rating (crabgrass; [11]) | Nutsedge plant response rating (purple nutsedge; [1]) | Nutsedge plant response rating (purple nutsedge; [5]) | Nutsedge plant response rating (purple nutsedge; [6]) | Plant response rating, Nutsedge (purple nutsedge; [7]) | Plant response rating, Nutsedge (purple nutsedge; [8]) | Plant response rating, Nutsedge (purple nutsedge; [9]) | Nutsedge plant response rating (purple nutsedge; [10]) | Nutsedge plant response rating (purple nutsedge; [11]) | Wild oats plant response rating (wild oat; [1]) | Wild oats plant response rating (wild oat; [5]) | Wild oats plant response rating (wild oat; [6]) | Plant response rating, Wild oats (wild oat; [8]) | Plant response rating, Wild oats (wild oat; [9]) | Wild oats plant response rating (wild oat; [11]) | Rice plant response rating (rice; [1]) | Rice plant response rating (rice; [2]) | Rice plant response rating (rice; [3]) | Rice plant response rating (rice; [4]) | Wheat plant response rating (wheat; [1]) | Wheat plant response rating (wheat; [5]) | Wheat plant response rating (wheat; [6]) | Plant response rating, Wheat (wheat; [7]) | Plant response rating, Wheat (wheat; [8]) | Plant response rating, Wheat (wheat; [9]) | Wheat plant response rating (wheat; [11]) | Ducksalad plant response rating (duck salad; [1]) | Ducksalad plant response rating (duck salad; [2]) | Ducksalad plant response rating (duck salad; [3]) | Ducksalad plant response rating (duck salad; [4]) | Morningglory plant response rating (morningglory; [6]) | Plant response rating, Morningglory (morningglory; [7]) | Plant response rating, Morningglory (morningglory; [8]) | Plant response rating, Morningglory (morningglory; [9]) | Morningglory plant response rating (morningglory; [10]) | Velvetleaf plant response rating (velvetleaf; [1]) | Velvetleaf plant response rating (velvetleaf; [5]) | Velvetleaf plant response rating (velvetleaf; [6]) | Plant response rating, Velvetleaf (velvetleaf; [7]) | Plant response rating, Velvetleaf (velvetleaf; [8]) | Plant response rating, Velvetleaf (velvetleaf; [9]) | Velvetleaf plant response rating (velvetleaf; [11]) | Redroot pigweed plant response rating (pigweed; [1]) | Redroot pigweed plant response rating (pigweed; [5]) | Redroot pigweed plant response rating (pigweed; [6]) | Plant response rating, Redroot pigweed (pigweed; [7]) | Plant response rating, Redroot pigweed (pigweed; [8]) | Plant response rating, Redroot pigweed (pigweed; [9]) | Redroot pigweed plant response rating (pigweed; [10]) | Redroot pigweed plant response rating (pigweed; [11]) | Corn plant response rating (corn; [1]) | Corn plant response rating (corn; [5]) | Corn plant response rating (corn; [6]) | Plant response rating, Corn (corn; [7]) | Plant response rating, Corn (corn; [8]) | Plant response rating, Corn (corn; [9]) | Corn plant response rating (corn; [10]) | Corn plant response rating (corn; [11]) | Giant foxtail plant response rating (giant foxtail; [1]) | Giant foxtail plant response rating (giant foxtail; [5]) | Giant foxtail plant response rating (giant foxtail; [6]) | Plant response rating, Giant foxtail (giant foxtail; [7]) | Plant response rating, Giant foxtail (giant foxtail; [8]) | Giant foxtail plant response rating (giant foxtail; [10]) | Giant foxtail plant response rating (giant foxtail; [11])
2: Soybean plant response rating (soybean; [5])
1: Soybean plant response rating (soybean; [1]) | Soybean plant response rating (soybean; [11]) | Crabgrass plant response rating (crabgrass; [5]) | Morningglory plant response rating (morningglory; [1]) | Morningglory plant response rating (morningglory; [11])
3: Plant response rating, Crabgrass (crabgrass; [9]) | Morningglory plant response rating (morningglory; [5])
4: Plant response rating, Giant foxtail (giant foxtail; [9])
